Earlier results, collected in US20240180994A1 (priority 2021, published 2024).

Key:
TNF-α, IL-6 and IL-1β = details: daily oral 10-30 mg/kg for 4 weeks, aged rats
[1] = system: TNF-α, IL-1β, MAPKs (p38); details: 100 mg/kg, spinal cord injury models
[2] = biological target: SARS-CoV-2 membrane (M) protein (Severe acute respiratory syndrome coronavirus 2, UniProt P0DTC5); details: modeling studies
[3] = system: HIV-luc/SARS pseudotyped virus; details: read-out: effective dose at 50% of inhibition (EC50%)
TNF-α = details: mouse, in vivo
cathepsin L = cathepsin L (Homo sapiens, UniProt P07711)
[4] = biological target: SARS-CoV-2 protease 3CL pro (Severe acute respiratory syndrome coronavirus 2, UniProt P0DTD1)

CC(/C=C/C=C(\C)C(=O)O[C@@H]1O[C@H](CO[C@@H]2O[C@H](CO)[C@@H](O)[C@H](O)[C@H]2O)[C@@H](O)[C@H](O)[C@H]1O)=C\C=C\C=C(C)\C=C\C=C(/C)C(=O)O[C@@H]1O[C@H](CO[C@@H]2O[C@H](CO)[C@@H](O)[C@H](O)[C@H]2O)[C@@H](O)[C@H](O)[C@H]1O [crocin]
pro-inflammatory cytokines in renal tissue and serum (TNF-α, IL-6 and IL-1β): significantly reduced pro-inflammatory cytokines, TNF-α, IL-6 and IL-1β

CC1=C(C=O)C(C)(C)CC=C1 [safranal]
expression of inflammatory cytokines [1]: decreased the expression of the inflammatory cytokines TNF-α, IL-1β

COc1cc(/C=C/C(=O)O)ccc1O [ferulic acid]
affinity with M protein [2]: higher affinity with the M protein

O=c1cc(-c2ccc(O)c(O)c2)oc2cc(O)cc(O)c12 [Luteolin]
EC50 (wild-type SARS-CoV; read-out: EC50% inhibition of cytopathic effect, wild-type SARS-CoV, MTT assay): 10.6 µM | EC50 values times less than cytotoxicity on the cells in vitro (wild-type SARS-CoV; relates to both EC50 values of luteolin): 15 times | EC50 [3]: 9.02 µM

COc1ccc([C@@H]2CC(=O)c3c(O)cc(O[C@@H]4O[C@H](CO[C@@H]5O[C@@H](C)[C@H](O)[C@@H](O)[C@H]5O)[C@@H](O)[C@H](O)[C@H]4O)cc3O2)cc1O [hesperidin]
TNF-α in LPS-treated mice (TNF-α): decease TNF-α in mice treated with LPS

O=c1c(O)c(-c2ccc(O)c(O)c2)oc2cc(O)cc(O)c12 [Quercetin]
cathepsin L inhibition (cathepsin L): inhibit cathepsin L

O=C(O)/C=C/c1ccc(O)c(O)c1 [caffeic acid]
affinity with M protein [2]: higher affinity with the M protein

O=c1c(O)c(-c2ccc(O)cc2)oc2cc(O)cc(O)c12 [Kaempferol]
IC50 [4]: 116 µM
